Data: patent US20250249012A1, “COMPOSITIONS AND METHODS FOR TREATING AND/OR PREVENTING A VIRAL INFECTION” (priority 2022, published 2025)
Counter-ions that a name gives are not always drawn. Like-named read-outs stand apart in the source and are kept apart here.

Key:
[1] = tested on: Vero-E6 cells; conditions: 20 hours post infection
[2] = Pharmacokinetics in plasma; format: in vivo
[3] = Solubility of Apilimod and Nafamostat in different vehicles (visible precipitate); format: physicochemical; conditions: for precipitate in solution: 1 mg/ml Apilimod di-mesylate, 2 mg/ml Nafamostat mesylate, 12 hours at room temperature, also seen after centrifugation; for solubility in deionized water: mixed and dissolved in deionized (MilliQ) water; for solubility in solutions containing salt: phosphate buffer saline (PBS) or DMEM cell culture medium, particularly when together
From the text: FIGS. 1A-1B show the solubility of Apilimod and Nafamostat in different vehicles. […] Magnified images of the boxed areas are shown on the right panels.
This is the reason why our drug mixtures were made in deionized (MilliQ) water as stocks and for intranasal administration. While the mouse nose tolerates exposure to deionized (MilliQ) water, for humans it may be necessary to adjust the osmolarity of the solution, for example by adding sucrose.

[4] = tested on: A549-ACE2-TMPRSS2GFP cells; conditions: 20 hours post infection

Question: What does the source list for “N-[(E)-(3-methylphenyl)methylidencamino]-6-morpholin-4-yl-2-(2-pyridin-2-ylethoxy)pyrimidin-4-amine [Apilimod dimesylate]”?
Answer: number of cells, normalized to vehicle-treated infected cells ([1]; drug stock prepared in DMEM): Significant loss of cells; number of cells, normalized to vehicle-treated infected cells ([1]; drug stock prepared in PBS): Significant loss of cells; half-life in plasma [2]: relatively short half-life times (minutes); precipitate in solution ([3]; in DMEM): a precipitate is observable; precipitate in solution ([3]; in PBS): a precipitate is observable; solubility in deionized water [3]: substantially increased; solubility in solutions containing salt [3]: relatively insoluble and precipitate

Question: Which half-life in plasma [2] does the source give for `N=C(N)c1ccc2cc(OC(=O)c3ccc(N=C(N)N)cc3)ccc2c1` [Nafamostat mesylate] here?
Answer: Its half-life in plasma is “relatively short half-life times (minutes)”.

Question: And the precipitate in solution ([3]; in DMEM)?
Answer: Its precipitate in solution is “a precipitate is observable”.

Question: And the precipitate in solution ([3]; in PBS)?
Answer: Its precipitate in solution is “a precipitate is observable”.

Question: And the “solubility in deionized water” value [3]?
Answer: The value was “substantially increased”.

Question: What about the “solubility in solutions containing salt” value [3] of the same compound?
Answer: The value was “relatively insoluble and precipitate”.

Question: What about the “number of cells, normalized to vehicle-treated infected cells” value ([4]; drug stock prepared in DMEM) of the same compound?
Answer: The value was “Significant loss of cells”.

Question: And the “number of cells, normalized to vehicle-treated infected cells” value ([4]; drug stock prepared in PBS)?
Answer: Its value is “Significant loss of cells”.
